In US20230089867A1, “CYCLIC PENTAMER COMPOUNDS AS PROPROTEIN CONVERTASE SUBTILISIN/KEXIN TYPE 9 (PCSK9) INHIBITORS FOR THE TREATMENT OF METABOLIC DISORDER” (Novartis AG, priority 2018, published 2023):

Molecular target: human PCSK9 (Homo sapiens, UniProt Q8NBP7)
Test: PCSK9 ligand binding TR-FRET assay (interference with binding of human PCSK9 to human LDLR)
Settings: for Max % inhibition: PCSK9 FRET assay, efficacy (Amax), 100% = 1 uM unlabeled human PCSK9, 0% = DMSO; for IC50: TR-FRET, human PCSK9 Alexa Fluor 647 / human LDLR extracellular domain-Europium Kryptate, read-out: PCSK9 FRET Assay IC50
Outline: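 Threefold compound dilutions were pre-incubated 30 min with PCSK9, after which 4 nM Europium Kryptate-tagged human LDLR ectodomain was added for a further 2 h.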

human PCSK9, sequence (Q8NBP7 153-692): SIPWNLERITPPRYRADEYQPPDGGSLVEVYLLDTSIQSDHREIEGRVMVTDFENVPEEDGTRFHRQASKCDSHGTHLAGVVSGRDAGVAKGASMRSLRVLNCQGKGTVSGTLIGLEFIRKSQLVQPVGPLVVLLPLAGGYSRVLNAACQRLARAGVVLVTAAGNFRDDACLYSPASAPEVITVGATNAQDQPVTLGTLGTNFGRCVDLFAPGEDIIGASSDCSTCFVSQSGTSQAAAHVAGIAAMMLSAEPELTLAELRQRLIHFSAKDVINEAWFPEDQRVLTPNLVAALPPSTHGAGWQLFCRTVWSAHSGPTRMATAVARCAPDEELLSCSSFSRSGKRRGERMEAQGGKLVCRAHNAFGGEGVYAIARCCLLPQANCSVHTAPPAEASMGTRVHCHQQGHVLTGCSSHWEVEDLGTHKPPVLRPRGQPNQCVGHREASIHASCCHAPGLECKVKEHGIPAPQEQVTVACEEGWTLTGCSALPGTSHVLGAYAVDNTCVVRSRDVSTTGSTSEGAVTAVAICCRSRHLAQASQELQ
human PCSK9, sequence (Q8NBP7 31-152 partner limits assumed): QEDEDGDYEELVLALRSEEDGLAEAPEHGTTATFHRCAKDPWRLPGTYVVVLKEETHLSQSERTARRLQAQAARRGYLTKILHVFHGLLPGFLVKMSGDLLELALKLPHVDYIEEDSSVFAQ

Max % inhibition	IC50	Structure (SMILES)
103.62%	6.3 nM	COC[C@@H]1NC(=O)[C@H](C)N(Cc2ccc(C(F)(F)F)cc2Oc2ccc(-c3cnc(CN4CCCC4)n3C)cc2)C(=O)C[C@@H](Cc2ccccc2)C(=O)N(C)[C@@H](C)CNC(=O)C[C@H](Cc2ccc(Cl)cc2)N(C)C1=O [Compound 80, (2S,5S,8S,13S,16R)-16-benzyl-8-(4-chlorobenzyl)-5-(methoxymethyl)-2,7,13,14-tetramethyl-1-(2-(4-(1-methyl-2-(pyrrolidin-1-ylmethyl)-1H-imidazol-5-yl)phenoxy)-4-(trifluoromethyl)benzyl)-1,4,7,11,14-pentaazacyclooctadecane-3,6,10,15,18-pentaone]
101.12%	8.9 nM	COC[C@@H]1NC(=O)[C@@H](COC)N(Cc2ccc(Cl)cc2Oc2ccc(-c3cnc(CN(C)C)n3C)cc2)C(=O)C[C@@H](Cc2ccccc2)C(=O)N(C)[C@H]2CCCC[C@@H]2NC(=O)C[C@H](Cc2ccc(Cl)cc2)N(C)C1=O [Compound 8, (4S,7S,10R,14R,16aS,20aS)-14-benzyl-11-(4-chloro-2-(4-(2-((dimethylamino)methyl)-1-methyl-1H-imidazol-5-yl)phenoxy)benzyl)-4-(4-chlorobenzyl)-7,10-bis(methoxymethyl)-5,16-dimethylhexadecahydrobenzo[l][1,4,7,11,14]pentaazacyclooctadecine-2,6,9,12,15(3H)-pentaone]
87.05%	24.1 nM	COC[C@@H]1NC(=O)[C@@H](CCN(C)C)N(Cc2ccc(Cl)cc2Oc2ccc(-c3cnc(CN(C)C)n3C)cc2)C(=O)C[C@@H](Cc2ccccc2)C(=O)N(C)[C@H]2CCCC[C@@H]2NC(=O)C[C@H](Cc2ccc(Cl)cc2)N(C)C1=O [Compound 288, (4S,7S,10R,14R,16aS,20aS)-14-benzyl-11-(4-chloro-2-(4-(2-((dimethylamino)methyl)-1-methyl-1H-imidazol-5-yl)phenoxy)benzyl)-4-(4-chlorobenzyl)-10-(2-(dimethylamino)ethyl)-7-(methoxymethyl)-5,16-dimethylhexadecahydrobenzo[l][1,4,7,11,14]pentaazacyclooctadecine-2,6,9,12,15(3H)-pentaone]
102.40%	1.1 nM	COC[C@@H]1NC(=O)[C@H](C)N(Cc2ccc(Cl)cc2Oc2ccc(-c3cnc(CN(C)C)n3C)cc2)C(=O)C[C@@H](Cc2ccccc2)C(=O)N(C)[C@H]2CCCC[C@@H]2NC(=O)C[C@H](Cc2ccc(Cl)cc2)N(C)C1=O [Compound 145, (4S,7S,10S,14R,16aS,20aS)-14-benzyl-11-(4-chloro-2-(4-(2-((dimethylamino)methyl)-1-methyl-1H-imidazol-5-yl)phenoxy)benzyl)-4-(4-chlorobenzyl)-7-(methoxymethyl)-5,10,16-trimethylhexadecahydrobenzo[l][1,4,7,11,14]pentaazacyclooctadecine-2,6,9,12,15(3H)-pentaone]
85.89%	1.6 nM	COC[C@@H]1NC(=O)[C@H](C)N(Cc2ccc(Cl)cc2Oc2ccc(-c3cnc(CN(C)C)n3C)cc2)C(=O)C[C@@H](CC#N)C(=O)N(C)[C@H]2CCCC[C@@H]2NC(=O)C[C@H](Cc2ccc(Cl)cc2)N(C)C1=O [Compound 89, 2-((4S,7S,10S,14R,16aS,20aS)-11-(4-chloro-2-(4-(2-((dimethylamino)methyl)-1-methyl-1H-imidazol-5-yl)phenoxy)benzyl)-4-(4-chlorobenzyl)-7-(methoxymethyl)-5,10,16-trimethyl-2,6,9,12,15-pentaoxodocosahydrobenzo[l][1,4,7,11,14]pentaazacyclooctadecin-14-yl)acetonitrile]
102.27%	3.1 nM	COC[C@@H]1NC(=O)[C@H](C)N(Cc2ccc(Cl)cc2Oc2ccc(-c3cnc(CN(C)C)n3C)cc2)C(=O)C[C@@H](Cc2ccc(F)c[n+]2[O-])C(=O)N(C)[C@@H](C)CNC(=O)C[C@H](Cc2ccc(Cl)cc2)N(C)C1=O [Compound 180, 2-(((2S,5S,8S,13S,16R)-1-(4-chloro-2-(4-(2-((dimethylamino)methyl)-1-methyl-1H-imidazol-5-yl)phenoxy)benzyl)-8-(4-chlorobenzyl)-5-(methoxymethyl)-2,7,13,14-tetramethyl-3,6,10,15,18-pentaoxo-1,4,7,11,14-pentaazacyclooctadecan-16-yl)methyl)-5-fluoropyridine 1-oxide]
102.12%	12.9 nM	COC[C@@H]1NC(=O)[C@H](C)N(Cc2ccc(Cl)cc2Oc2ccc(-c3cnc(CN(C)C)n3C)cc2)C(=O)C[C@@H](Cc2ccccc2)C(=O)N(C)[C@@H](C(=O)OC)CNC(=O)C[C@H](Cc2ccc(Cl)cc2)N(C)C1=O [Compound 71, (2S,5S,8S,13R,16R)-methyl 16-benzyl-1-(4-chloro-2-(4-(2-((dimethylamino)methyl)-1-methyl-1H-imidazol-5-yl)phenoxy)benzyl)-8-(4-chlorobenzyl)-5-(methoxymethyl)-2,7,14-trimethyl-3,6,10,15,18-pentaoxo-1,4,7,11,14-pentaazacyclooctadecane-13-carboxylate]
98.35%	1.4 nM	CNC(=O)C[C@@H]1NC(=O)[C@H](C)N(Cc2ccc(Cl)cc2Oc2ccc(-c3cnc(CN(C)C)n3C)cc2)C(=O)C[C@@H](Cc2ccccc2)C(=O)N(C)[C@@H](C)CNC(=O)C[C@H](Cc2ccc(Cl)cc2)N(C)C1=O [Compound 221, 2-((2S,5S,8S,13S,16R)-16-benzyl-1-(4-chloro-2-(4-(2-((dimethylamino)methyl)-1-methyl-1H-imidazol-5-yl)phenoxy)benzyl)-8-(4-chlorobenzyl)-2,7,13,14-tetramethyl-3,6,10,15,18-pentaoxo-1,4,7,11,14-pentaazacyclooctadecan-5-yl)-N-methylacetamide]
104.13%	0.8 nM	CCc1ccc(CN2C(=O)C[C@@H](Cc3ccccc3)C(=O)N(C)[C@@H](C)CNC(=O)C[C@H](Cc3ccc(Cl)cc3)N(C)C(=O)[C@H](COC)NC(=O)[C@@H]2C)c(Oc2ccc(-c3cnc(CN4CCCC4)n3C)cc2)c1.Cl [Compound 150, (2S,5S,8S,13S,16R)-16-benzyl-8-(4-chlorobenzyl)-1-(4-ethyl-2-(4-(1-methyl-2-(pyrrolidin-1-ylmethyl)-1H-imidazol-5-yl)phenoxy)benzyl)-5-(methoxymethyl)-2,7,13,14-tetramethyl-1,4,7,11,14-pentaazacyclooctadecane-3,6,10,15,18-pentaone hydrochloride]
91.38%	14.7 nM	COC[C@@H]1NC(=O)[C@H](C)N(Cc2cccnc2Oc2ccc(-c3cnc(CN(C)C)n3C)cc2)C(=O)C[C@@H](Cc2ccccc2)C(=O)N(C)[C@@H](C)CNC(=O)C[C@H](Cc2ccc(Cl)cc2)N(C)C1=O [Compound 210, (2S,5S,8S,13S,16R)-16-benzyl-8-(4-chlorobenzyl)-1-((2-(4-(2-((dimethylamino)methyl)-1-methyl-1H-imidazol-5-yl)phenoxy)pyridin-3-yl)methyl)-5-(methoxymethyl)-2,7,13,14-tetramethyl-1,4,7,11,14-pentaazacyclooctadecane-3,6,10,15,18-pentaone]
102.86%	1.6 nM	COC[C@@H]1NC(=O)[C@H](CCCN(C)C)N(Cc2ccc(Cl)cc2Oc2ccc(-c3cnc(CN(C)C)n3C)cc2)C(=O)C[C@@H](Cc2ccccc2)C(=O)N(C)[C@H]2CCCC[C@@H]2NC(=O)C[C@H](Cc2ccc(Cl)cc2)N(C)C1=O [Compound 291, (4S,7S,10S,14R,16aS,20aS)-14-benzyl-11-(4-chloro-2-(4-(2-((dimethylamino)methyl)-1-methyl-1H-imidazol-5-yl)phenoxy)benzyl)-4-(4-chlorobenzyl)-10-(3-(dimethylamino)propyl)-7-(methoxymethyl)-5,16-dimethylhexadecahydrobenzo[l][1,4,7,11,14]pentaazacyclooctadecine-2,6,9,12,15(3H)-pentaone]
106.65%	1.5 nM	COC[C@@H]1NC(=O)[C@H](C)N(Cc2ccc(Cl)cc2Oc2ccc(-n3cnc(CN4CCCC4)c3C)cc2)C(=O)C[C@@H](Cc2ccccc2)C(=O)N(C)[C@H]2CCCC[C@@H]2NC(=O)C[C@H](Cc2ccc(Cl)cc2)N(C)C1=O [Compound 19, (4S,7S,10S,14R,16aS,20aS)-14-benzyl-11-(4-chloro-2-(4-(5-methyl-4-(pyrrolidin-1-ylmethyl)-1H-imidazol-1-yl)phenoxy)benzyl)-4-(4-chlorobenzyl)-7-(methoxymethyl)-5,10,16-trimethylhexadecahydrobenzo[l][1,4,7,11,14]pentaazacyclooctadecine-2,6,9,12,15(3H)-pentaone]
114.68%	0.9 nM	CCc1ccc(CN2C(=O)C[C@@H](Cc3ccccc3)C(=O)N(C)[C@H]3CCCC[C@@H]3NC(=O)C[C@H](Cc3ccc(Cl)cc3)N(C)C(=O)[C@H](COC)NC(=O)[C@@H]2C)c(Oc2ccc(-c3cnc([C@@H](C)N(C)C)n3C)cc2)c1 [Compound 85, (4S,7S,10S,14R,16aS,20aS)-14-benzyl-4-(4-chlorobenzyl)-11-(2-(4-(2-((R)-1-(dimethylamino)ethyl)-1-methyl-1H-imidazol-5-yl)phenoxy)-4-ethylbenzyl)-7-(methoxymethyl)-5,10,16-trimethylhexadecahydrobenzo[l][1,4,7,11,14]pentaazacyclooctadecine-2,6,9,12,15(3H)-pentaone]
93.92%	8.4 nM	COC[C@@H]1NC(=O)C(C)N(Cc2ccc(F)cc2Oc2ccc(-c3cnc(CN(C)C)n3C)cc2)C(=O)C[C@@H](Cc2ccccc2)C(=O)N(C)[C@H]2CCCC[C@@H]2NC(=O)C[C@H](Cc2ccc(Cl)cc2)N(C)C1=O (stereo partly drawn) [Compound 228, (4S,7S,14R,16aS,20aS)-14-benzyl-4-(4-chlorobenzyl)-11-(2-(4-(2-((dimethylamino)methyl)-1-methyl-1H-imidazol-5-yl)phenoxy)-4-fluorobenzyl)-7-(methoxymethyl)-5,10,16-trimethylhexadecahydrobenzo[l][1,4,7,11,14]pentaazacyclooctadecine-2,6,9,12,15(3H)-pentaone]
